Measurements published in US20260263468A1 (Fundación Instituto de Investigación Sanitaria Fundación …, priority 2023, published 2026).

Assays:
[1] = tested on: K/B×N serum transfer-induced arthritis; assay: Tissues weight at collection, acute model of inflammation; assay type: in vivo, C57BL/6J mice
Protocol: Data collected for absolute weight are correlated with mouse weight to obtain relative weight (*indicates differences with the sham group and $ indicates differences with the arthritic group). WAT, white adipose tissue; BAT, brown adipose tissue. Values are presented as mean±SEM. […]
(§1) Mice were weighted weekly. Development of arthritis was assessed daily, and the severity of arthritis was assessed in each paw on a 4-point scale defined as follows: 0=normal appearance, 1=localized edema/erythema over one surface of the paw, 2=edema/erythema involving more than one surface of the paw, and 3-4=marked edema/erythema involving the whole paw. Scores of all 4 paws were added for a composite score. All motor activity tests were performed prior to serum inoculation and at the highest point of inflammation. Mice were euthanized on day 16 for acute inflammation model or 30 days for Inflammation resolved model. A representative photo of body structure and muscle of pawn were taken on this day. Gastronemius was collected for protein and RNA extraction. Tibialis and soleus were included for freeze histology following the indications of H. Meng (see references in ref. 44). Bones were prepared for micro-computed tomography (microCT) and histology. Blood was drawn and serum was isolated for measurement of inflammatory cytokines and C-reactive protein (CPR).

[2] = tested on: K/B×N serum transfer-induced arthritis; assay: Cytokine and chemokine array in gastronemius muscle; assay type: in vivo, C57BL/6J mice; conditions: acute model, RA + Dipy
Protocol: The cytokines concentration was measured by fluorescence using GenePix 4000B following manufacture protocol for serum and frozen samples. Serum samples were used at 2-fold sample dilution. Frozen gastronemius were crushed using a mortar and a pestle cooled with liquid nitrogen. Next, gastronemius were homogenized in a sonicator and the protein isolated in the supernatant quantified with BCA assay. We used 100 μL (1 mg/ml) of total gastronemius protein for cytokine and chemokine array assay.

[3] = tested on: K/B×N serum transfer-induced arthritis; assay: K/B×N serum transfer-induced arthritis, acute model: joint thickness, clinical score, body weight; assay type: in vivo, C57BL/6J mice
Protocol: In their quest for a model of inflammatory arthritis which could display associated sarcopenia the inventors employed serum transfer from K/B×N progeny in 12-wk-old C57BL/6J mice. Arthritic K/B×N mice were generated by crossing KRN mice with NOD/Lt mice. Serum was collected and pulled. Age-matched, male recipient, 12-wk-old C57BL/6J mice were purchased from Charles River Laboratories (Barcelona, España). C57BL/6J mice were injected with pooled serum (100 μl, I.P.) from K/B×N mice on day 0 and 2.
as §1, with “Development” for “Mice were weighted weekly. Development”, “14. Gastronemius” for “16 for acute inflammation model or 30 days for Inflammation resolved model. A representative photo of body structure”, “quadriceps” for “muscle of pawn”, “were” for “were taken on this day. Gastronemius was”, “(1).” for “(see references in ref. 44).”, “histology. White adipose tissue (WAT) and brown adipose tissue (BAT) were collected for histology and protein extraction.” for “histology.”
Animals were sacrificed 30 days after serum transfer.
as §1

C2C12 myobundles = assay: C2C12 3D myobundle with IL-6 ± dipyridamole; assay type: cell-based; conditions: IL-6 2.5 μg/ml ± dipyridamole 1 μM, 14 days; Sham 890±39
From the text: C2C12 myobundles were fabricated following the protocol described by Bursac group (see references in ref. 44). Briefly, molds of polydimethylsiloxane (PDMS) designed for 12-well plates were created from Teflon masters with semicylindrical wells. These molds were sterilized, coated with 0.2% (w/v) Pluronic F-127 (Invitrogen) to prevent tissue adhesion, and paired with laser-cut Cerex frames (9×9 mm^2, 1-mm-wide rim) for myobundle attachment. The frames served as an anchor and guide during hydrogel compaction, ensuring uniaxial cell alignment. C2C12 cells were encapsulated in a hydrogel solution, including bovine fibrinogen (Sigma-Aldrich), matrigel (Corning), bovine thrombin (Sigma-Aldrich), and growth medium as concentration of bursac group indicates Referencias. The cell/hydrogel mixture was polymerized in the PDMS molds, and myobundles were cultured in a humidified chamber at 37° C., in 95% air and 5% CO2. After 4 days, the frames with myobundles were suspended in DM with treatments. DM and treatments are replaced every two days. GM and DM media contained 6-aminocaproic acid to reduce fibrinolysis. […] After the 14 days of treatment a bright-field photograph was taken to analyze the thickness of the fiber at its midpoint, and subsequently, they were embedded in OCT medium. […]

C2C12 = assay: Western blot of adenosine receptors, P2X7 and Panx-1 during differentiation; assay type: cell-based; conditions: 1 μM
Protocol: Cells were lysed with RIPA buffer and protein concentration was determined by BCA. […] Variations in intensity were expressed as % of basal (day 0) and expressed as mean±SEM. All results were calculated as a percentage of non-differentiated controls to minimize the intrinsic variation among different experiments.
The expression of adenosine receptors, P2X7 receptor and Panx-1 channel was analyzed during myoblast differentiation.

[4] = Body composition by DXA scan; assay type: in vivo, C57BL/6J mice; conditions: healthy mice, dipy treatment alone, 2 weeks
Protocol: Previously to arthritis induction and sacrifice day, all mice underwent DXA scan. For DXA analysis, a Lunar PIXImus densitometer (software version 2.10) was calibrated using a hydroxyapatite phantom provided by the manufacturer (Lunar Corp, Madison, WI). Subsequently, mice were anesthetized and whole-body scans were conducted. Data analysis consisted of whole-body lean mass, fat mass, bone mineral density and bone mineral content. […] Previously to arthritis induction and sacrifice day, all mice underwent DXA scan. For DXA analysis, a Lunar PIXImus densitometer (software version 2.10) was calibrated using a hydroxyapatite phantom provided by the manufacturer (Lunar Corp, Madison, WI). Subsequently, mice were anesthetized and whole-body scans were conducted. Data analysis consisted of whole-body lean mass, fat mass, bone mineral density and bone mineral content.

OCCN(CCO)c1nc(N2CCCCC2)c2nc(N(CCO)CCO)nc(N3CCCCC3)c2n1 [dipyridamole, 2,6-bis(Diethanolamino)-4,8-dipiperidinopyrimido[5,4-d]pyrimidine]
BAT, Absolute weight ([1]; RA + Dipy): 0.157 ± 0.005 g | EDL, Absolute weight ([1]; RA + Dipy): 0.010 ± 0.013 g | Gastronemius, Absolute weight ([1]; RA + Dipy): 0.123 ± 0.004 g | Quadriceps, Absolute weight ([1]; RA + Dipy): 0.15 ± 0.01 g | Soleus, Absolute weight ([1]; RA + Dipy): 0.008 ± 0.001 g | Tibialis, Absolute weight ([1]; RA + Dipy): 0.056 ± 0.004 g | WAT, Absolute weight ([1]; RA + Dipy): 0.198 ± 0.018 g | Bodyweight, Absolute weight ([1]; RA mice + Dipy 25 mg/kg/day): 22.12 ± 0.18 g | BAT, Absolute weight ([1]; healthy mice, Dipy alone): 0.16 ± 0.003 g | EDL, Absolute weight ([1]; healthy mice, Dipy alone): 0.011 ± 0.008 g | Gastronemius, Absolute weight ([1]; healthy mice, Dipy alone): 0.174 ± 0.007 g | Soleus, Absolute weight ([1]; healthy mice, Dipy alone): 0.011 ± 0.002 g | Tibialis, Absolute weight ([1]; healthy mice, Dipy alone): 0.08 ± 0.009 g | WAT, Absolute weight ([1]; healthy mice, Dipy alone): 0.22 ± 0.02 g | Bodyweight, Absolute weight ([1]; healthy mice, Dipy alone 25 mg/kg/day): 24.26 ± 1.72 g | Muscle IL-1α [2]: 3.5 ± 0.2 pg/mL | Muscle IL-1β [2]: 13.9 ± 1.9 $$ pg/ml | Muscle IL-2 [2]: 8 ± 2.8 pg/mL | Muscle IL-3 [2]: 1 ± 0.2 pg/mL | Muscle IL-4 [2]: 23 ± 1.9 pg/mL | Muscle IL-5 [2]: 5.5 ± 0.8 pg/mL | Muscle IL-6 [2]: 6.9 ± 0.6 **/$ pg/ml | Muscle IL-9 [2]: 13.1 ± 2.5 pg/mL | Muscle IL-10 [2]: 32.5 ± 2.3 **/ $ pg/ml | Muscle IL-13 [2]: 11.3 ± 0.9 pg/mL | Muscle IL-17 [2]: 7 ± 1.3 pg/mL | Muscle INFγ [2]: 48.7 ± 4.8 */$ pg/ml | Muscle KC (CXCL1) [2]: 1.2 ± 0.7 pg/mL | Muscle M-CSF [2]: 11.8 ± 1.6 pg/mL | Muscle RANTES [2]: 4.7 ± 0.5 pg/mL | Muscle TNF-α [2]: 24.6 ± 1.2 pg/mL | Muscle VEGF [2]: 122 ± 12.9 pg/mL | Muscle MCP-1 ([2]; listed as Dipy): 43.8 ± 9.9 */$ pg/ml | Muscle MCP-1 ([2]; listed as dipy): 43.8 ± 9.9 pg/mL | Weight loss ([3]; arthritic mice, 2 weeks of treatment, arthritic 14.2±4.1%): 6.2±3.4% | Paw (joint) thickness ([3]; arthritic mice, daily dipyridamole, 2 wk, arthritic 1.72±0.09): 0.5±0.01 mm | Clinical score (inflammation) ([3]; arthritic mice, daily dipyridamole, 2 wk, arthritic 14±1): 5±3 | Hind paw musculature (macroscopic) ([3]; healthy mice, dipy alone, two weeks): no significant changes | Percentage of weight ([3]; healthy mice, dipyridamole 25 mg/kg/day alone, 2 weeks): did not change | Myobundle thickness (C2C12 myobundles): did not lead to an alteration of the muscle fiber | A3 receptor protein expression (C2C12; compared to control): did not change | P2X7 protein expression (% of basal) (C2C12; day 4): 202±46% | Body composition (DXA) [4]: did not produced alterations in body composition
